Assay results reported in PubChem BioAssay AID1963860 (Molecular Pharmacology Branch, DTP, NCI, 2024).

System: CN0375-F725-PDC KRAS spheroid viability
Assay: Anticancer human tumor CN0375-F725-PDC patient-derived colon carcinoma cell line growth inhibition [KRAS2]
Conditions: spheroids with HUVEC and MSC; for IC50: curve of first compound; for viability, T/C: stronger effect = lower value
Method in brief: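 Combination screen of spheroid viability in tumor-cell co-cultures with endothelial (HUVEC) and mesenchymal stem cell stroma. Each agent was tested in half-log dilutions, topping at clinical Cmax or at 10 microM without a known Cmax.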

[1] = second compound 0.1 µM, first compound 0.0316 µM
[2] = second compound 0.1 µM, first compound 0.1 µM
[3] = second compound 0.1 µM, first compound 0.316 µM
[4] = second compound 0.1 µM, first compound 1 µM
[5] = second compound 0.1 µM, first compound 3.16 µM
[6] = second compound 0.1 µM, first compound 10 µM
[7] = second compound 0.316 µM, first compound 0.0316 µM
[8] = second compound 0.316 µM, first compound 0.1 µM
[9] = second compound 0.316 µM, first compound 0.316 µM
[10] = second compound 0.316 µM, first compound 1 µM
[11] = second compound 0.316 µM, first compound 3.16 µM
[12] = second compound 0.316 µM, first compound 10 µM
[13] = second compound 1 µM, first compound 0.0316 µM
[14] = second compound 1 µM, first compound 0.1 µM
[15] = second compound 1 µM, first compound 0.316 µM
[16] = second compound 1 µM, first compound 1 µM
[17] = second compound 1 µM, first compound 3.16 µM
[18] = second compound 1 µM, first compound 10 µM
[19] = second compound 3.16 µM, first compound 0.0316 µM
[20] = second compound 3.16 µM, first compound 0.1 µM
[21] = second compound 3.16 µM, first compound 0.316 µM
[22] = second compound 3.16 µM, first compound 1 µM
[23] = second compound 3.16 µM, first compound 3.16 µM
[24] = second compound 3.16 µM, first compound 10 µM
[25] = second compound 10 µM, first compound 0.0316 µM
[26] = second compound 10 µM, first compound 0.1 µM
[27] = second compound 10 µM, first compound 0.316 µM
[28] = second compound 10 µM, first compound 1 µM
[29] = second compound 10 µM, first compound 3.16 µM
[30] = second compound 10 µM, first compound 10 µM
[31] = second compound 0.0316 µM, first compound 0.0316 µM
[32] = second compound 0.0316 µM, first compound 0.1 µM
[33] = second compound 0.0316 µM, first compound 0.316 µM
[34] = second compound 0.0316 µM, first compound 1 µM
[35] = second compound 0.0316 µM, first compound 3.16 µM
[36] = second compound 0.0316 µM, first compound 10 µM
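Also: spheroids exposed to agents for 7 days.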

SMILES | IC50 (second compound 0.1 µM) [µM] | IC50 (second compound 0.316 µM) [µM] | IC50 (second compound 1 µM) [µM] | IC50 (second compound 3.16 µM) [µM] | viability, T/C [1] [%] | viability, T/C [2] [%] | viability, T/C [3] [%] | viability, T/C [4] [%] | viability, T/C [5] [%] | viability, T/C [6] [%] | viability, T/C [7] [%] | viability, T/C [8] [%] | viability, T/C [9] [%] | viability, T/C [10] [%] | viability, T/C [11] [%] | viability, T/C [12] [%] | viability, T/C [13] [%] | viability, T/C [14] [%] | viability, T/C [15] [%] | viability, T/C [16] [%] | other results
COc1cc2nccc(Oc3ccc(NC(=O)C4(C(=O)Nc5ccc(F)cc5)CC4)cc3)c2cc1OC + CNCc1ccccc1-c1csc(C(C)Nc2nc(C)nc3cc(OC)c(OC)cc23)c1 | 3.04 | 1.23 | < 0.0316 | < 0.0316 | 98.2 | 94.4 | 85.6 | 76.3 | 44.4 | 53.7 | 93 | 97.6 | 72.7 | 60.5 | 23 | 11.3 | 45.5 | 42.6 | 19.5 | 20.6 | IC50 (second compound 10 µM): < 0.0316 µM; viability, T/C [17]: 2.02%; viability, T/C [18]: 1.05%; viability, T/C [19]: 0.22%; viability, T/C [20]: 0.26%; viability, T/C [21]: 0.27%; viability, T/C [22]: 0.15%; viability, T/C [23]: 0.15%; viability, T/C [24]: 0.11%; viability, T/C [25]: 0.14%; viability, T/C [26]: 0.13%; viability, T/C [27]: 0.14%; viability, T/C [28]: 0.12%; viability, T/C [29]: 0.1%; viability, T/C [30]: 0.16%
CC(C)NCC(C(=O)N1CCN(c2ncnc3c2C(C)CC3O)CC1)c1ccc(Cl)cc1 (stereo not given) + C=CC(=O)N1CCN(c2nc(OCC3CCCN3C)nc3c2CCN(c2cccc4cccc(C)c24)C3)CC1CC#N | > 10 | > 10 | > 10 | < 0.0316 | 106 | 103 | 98 | 91.7 | 91.4 | 78.2 | 101 | 108 | 94.6 | 87.8 | 85.3 | 71.4 | 103 | 102 | 92.5 | 76.8 | IC50 (second compound 0.0316 µM): > 10 µM; viability, T/C [31]: 106%; viability, T/C [32]: 105%; viability, T/C [33]: 101%; viability, T/C [34]: 93%; viability, T/C [35]: 94.2%; viability, T/C [36]: 83.2%; viability, T/C [17]: 70.9%; viability, T/C [18]: 58.2%; viability, T/C [19]: 19.5%; viability, T/C [20]: 14.7%; viability, T/C [21]: 13.5%; viability, T/C [22]: 4.72%; viability, T/C [23]: 3.97%; viability, T/C [24]: 1.46%
O=C(c1cc(Cc2n[nH]c(=O)c3ccccc23)ccc1F)N1CCN(C(=O)C2CC2)CC1 + CC1OCC2(CCN(c3cnc(Sc4ccnc(N)c4Cl)c(N)n3)CC2)C1N | > 10 | > 10 | > 10 | > 10 | 97.7 | 98.4 | 91.3 | 100 | 97.8 | 90 | 100 | 93.9 | 90.3 | 89.6 | 93 | 86.4 | 107 | 98.3 | 93.6 | 92.6 | IC50 (second compound 10 µM): > 10 µM; viability, T/C [17]: 97.6%; viability, T/C [18]: 93.9%; viability, T/C [19]: 83.4%; viability, T/C [20]: 82.2%; viability, T/C [21]: 82.5%; viability, T/C [22]: 80.7%; viability, T/C [23]: 80.7%; viability, T/C [24]: 76.4%; viability, T/C [25]: 79.9%; viability, T/C [26]: 83.6%; viability, T/C [27]: 106%; viability, T/C [28]: 77%; viability, T/C [29]: 71.4%; viability, T/C [30]: 71.1%
CC1OCC2(CCN(c3cnc(Sc4ccnc(N)c4Cl)c(N)n3)CC2)C1N (stereo not given) + C=CC(=O)N1CCN(c2nc(=O)n(-c3c(C)ccnc3C(C)C)c3nc(-c4c(O)cccc4F)c(F)cc23)C(C)C1 | > 10 | > 10 | > 10 | > 10 | 102 | 86.4 | 82.5 | 79.1 | 77.2 | 63.6 | 98.8 | 85.5 | 78.3 | 79.9 | 77.5 | 59.8 | 96.3 | 99.3 | 86.3 | 82.9 | IC50 (second compound 10 µM): > 10 µM; viability, T/C [17]: 75.2%; viability, T/C [18]: 65.6%; viability, T/C [19]: 104%; viability, T/C [20]: 92.4%; viability, T/C [21]: 81.4%; viability, T/C [22]: 81%; viability, T/C [23]: 71.6%; viability, T/C [24]: 65.6%; viability, T/C [25]: 94%; viability, T/C [26]: 92.2%; viability, T/C [27]: 77.9%; viability, T/C [28]: 66.3%; viability, T/C [29]: 61.8%; viability, T/C [30]: 49.6%
CC1(C)CCC(CN2CCN(c3ccc(C(=O)NS(=O)(=O)c4ccc(NCC5CCOCC5)c([N+](=O)[O-])c4)c(Oc4cnc5[nH]ccc5c4)c3)CC2)=C(c2ccc(Cl)cc2)C1 + C=CC(=O)N1CCN(c2nc(OCC3CCCN3C)nc3c2CCN(c2cccc4cccc(C)c24)C3)CC1CC#N | 4.63 | 2.67 | 2.01 | < 0.0316 | 104 | 104 | 102 | 99 | 66.3 | 17 | 101 | 108 | 101 | 96.6 | 42 | 14.3 | 96.6 | 97.2 | 100 | 86.3 | IC50 (second compound 0.0316 µM): 3.98 µM; viability, T/C [31]: 108%; viability, T/C [32]: 102%; viability, T/C [33]: 101%; viability, T/C [34]: 107%; viability, T/C [35]: 58.5%; viability, T/C [36]: 15.9%; viability, T/C [17]: 26.2%; viability, T/C [18]: 5.23%; viability, T/C [19]: 11%; viability, T/C [20]: 12%; viability, T/C [21]: 3.38%; viability, T/C [22]: 3.27%; viability, T/C [23]: 0.38%; viability, T/C [24]: 0.17%
CC(C)NCC(C(=O)N1CCN(c2ncnc3c2C(C)CC3O)CC1)c1ccc(Cl)cc1 (stereo not given) + CNCc1ccccc1-c1csc(C(C)Nc2nc(C)nc3cc(OC)c(OC)cc23)c1 | > 10 | > 10 | 0.37 | < 0.0316 | 107 | 103 | 93.1 | 82.6 | 89.5 | 78.7 | 99.4 | 98.2 | 88.5 | 85.2 | 80 | 61.8 | 56.6 | 57.2 | 48.4 | 45.2 | IC50 (second compound 10 µM): < 0.0316 µM; viability, T/C [17]: 30.1%; viability, T/C [18]: 16%; viability, T/C [19]: 0.23%; viability, T/C [20]: 0.3%; viability, T/C [21]: 0.25%; viability, T/C [22]: 0.28%; viability, T/C [23]: 0.31%; viability, T/C [24]: 0.32%; viability, T/C [25]: 0.14%; viability, T/C [26]: 0.14%; viability, T/C [27]: 0.16%; viability, T/C [28]: 0.14%; viability, T/C [29]: 0.13%; viability, T/C [30]: 0.2%
